Read-outs that look alike come from different tables or passages of the source.
Assays:
[1] = ABTS˙^+ radical scavenging assay; assay type: biochemical
Experimental: The assay was based on the decolorization of green (2,2′-azinobis-(3-ethylbenzothiazoline-6-sulfonic acid) ABTS˙^+ to ABTS, on the principle reported by Re et al. and was carried out according to our previously published research.
Later, 1950 µL of ABTS˙^+ reagent was added to all cuvettes and they were shaken for well over 10 min in the dark at room temperature. The absorbance of the resulted solutions found in cuvettes was determined spectrophotometrically at λ = 734 nm. The ABTS scavenging activity of the compounds was calculated using the following Equation (1):(1) ABTS scavenging (%)=control absorbance−sample absorbance/control absorbance×100

Fe^2+ chelation assay = assay type: biochemical
Experimental: The protocol used for assessing Fe^2+ chelating capacity of the compounds was adapted from a report of Benzie and Strain and previously reported by our group. The iron(II) chelation ability of compounds was calculated using Equation (7):(7) iron chelation (%)=control absorbance−sample absorbance/control absorbance×100
The chelating potential for the ferrous ions of the new compounds was determined, based on their competition for Fe^2+ with ferrozine.

[2] = Ferric ions (Fe^3+) reducing antioxidant power by cyclic voltammetry
Experimental: The evaluated compounds’ stock solutions used were prepared at a concentration of 5 mM. To test their redox properties, dilutions of 0.5 mM and 2 mM were prepared in 0.1 M HClO4 electrolyte (pH = 1.2). Screen-printed electrodes (SPEs; Metrohm DropSens, Oviedo, Spain) (planar electrodes) with graphite and gold working electrodes were used. Cyclic voltammetry (CV) and differential pulse voltammetry (DPV) were the electrochemical methods applied. The experimental conditions for each test are mentioned near the corresponding data (Appendix A).
(§1) The antioxidant properties were evaluated in terms of their activity against some free radicals, and other compounds reported in the literature, relevant for this purpose, such as: • ferric ions (Fe^3+)—used to test the reduction of the antioxidant character of the compounds; • DPPH˙ free radical– used to test the scavenging effect of the compounds on this radical; • hydrogen peroxide (H2O2)—used to test the scavenging effect of the synthesized molecules on this compound; • 2,2,6,6-tetramethylpiperidinyl-1-oxy (TEMPO)—used to test the scavenging effect of the synthesized molecules on this compound.
This method is based on the evaluation of the influence of the compound measured by the direct reduction of Fe[(CN)6]^3− to […]. This assay is based on the reduction of Fe^3+ to Fe^2+ due to the action of antioxidants. Based on the electrochemical behavior of the studied compounds, the interaction of Fe^3+ was followed by cyclic voltammetry (CV) via the possible changes of redox peaks characteristic for Fe^3+/Fe^2+ transition after the interaction with antioxidants (if any).
From the voltammogram of potassium ferricyanide it can be observed that the one-electron transfer process Fe^3+/Fe^2+ occurs at 0.247 V/ 0.150 V in acidic media (red) (Figure A1; Table A1).
Each compound presents its characteristic peaks (blue line in each figure).

[3] = DPPH˙ radical scavenging by cyclic voltammetry
Experimental: as §1
The radical scavenging properties of the novel compounds and the other antioxidants were determined using a stock DPPH˙ radical solution prepared in absolute ethanol. The antioxidant samples were mixed with DPPH˙ solution and HClO4 electrolyte and incubated in the dark for 30 min. The remaining redox activity of DPPH was measured by cycling the potential between −0.7 V and 1.2 V, with a scan rate of 0.1 V/s.
The nitrogen-centered 2-2-diphenyl-1-picrylhydrazyl radical (DPPH˙) based assay is one of the most commonly employed method to evaluate the ability of a compound to scavenge or neutralize free radicals based on the reduction of the radical.
Taking into account the redox activity of DPPH˙, its diminution by an antioxidant can also be followed by CV, which is expected to show changes in the voltammetric peaks. Figure A5 reports the electrochemical study of initial electrooxidation of DPPH˙ and the novel compounds compared to remaining peaks after their incubation for 30 min. The decrease of all the peaks after mixture incubation indicates the partial consumption of DPPH˙.

[4] = TEMPO scavenging by differential pulse voltammetry; settings: 2 mM TEMPO, one hour incubation, 0.1 M HClO4, DPV
Experimental: as §1
TEMPO (2,2,6,6-tetramethylpiperidine-N-oxyl) is a stable organic nitroxide radical that has been reported to scavenge carbon-centered radicals.
Differential pulse voltammetry (DPV) was then applied in order to evaluate the antioxidant effectiveness of the novel compounds through their ability to scavenge the free radical species.

E. coli ATCC 8739 = experiment: Antimicrobial activity, modified microdilution; assay type: cell-based; settings: Escherichia coli, ATCC8739
Experimental: For evaluating the antimicrobial activity of the compounds, […] aerobic microbial strains were used: S. aureus ATCC 25923, S. pyogenes ATCC 19615, P. aeruginosa ATCC 27853, S. enterica ISM 83/37, S. typhimurium ATCC 14028, E. coli ATCC 8739, E. coli ATCC 25922, and C. albicans ATCC 102310 obtained from Food Biotechnology Laboratory, Life Sciences Institute, University of Agricultural Sciences, and Veterinary Medicine Cluj Napoca, where the experiment was performed. The antimicrobial activity of the compounds was determined using a modified microdilution technique, and the followed protocol was previously reported.
The antimicrobial activity of the final compounds, against seven aerobic microbial strains (S. aureus ATCC 25923, S. pyogenes ATCC 19615, P. aeruginosa ATCC 27853, S. enterica ISM 83/37, S. typhimurium ATCC 14028, E. coli ATCC 8739, E. coli ATCC 25922), and a fungal strain (C. albicans ATCC 102310), was determined using a modified microdilution technique.
The results of the antimicrobial activity evaluation of the compounds, in comparison to norfloxacin and chloramphenicol used as standard antibiotics and fluconazole used as reference antifungal, are depicted in Table 10.

[5] = compound 0.5 mM + Fe^3+/Fe^2+ (0.5 mM potassium ferricyanide), 1st Eox column
[6] = compound 0.5 mM + Fe^3+/Fe^2+ (0.5 mM potassium ferricyanide), 1st Iox column
[7] = compound + Fe^3+/Fe^2+, 1st Ered
[8] = compound + Fe^3+/Fe^2+, 1st Ired
[9] = compound + Fe^3+/Fe^2+, 2nd Eox
[10] = compound + Fe^3+/Fe^2+, 2nd Ered column
[11] = compound + Fe^3+/Fe^2+, 2nd Iox column
[12] = compound + Fe^3+/Fe^2+, 2nd Ired
[13] = compound + Fe^3+/Fe^2+, 5th Eox
[14] = compound + Fe^3+/Fe^2+, 5th Iox column
[15] = compound alone 0.5 mM in 0.1 M HClO4, 2nd Eox
[16] = compound alone 0.5 mM in 0.1 M HClO4, 2nd Ered column
[17] = compound alone 0.5 mM in 0.1 M HClO4, 2nd Iox column
[18] = compound alone 0.5 mM in 0.1 M HClO4, 2nd Ired
[19] = compound alone 0.5 mM in 0.1 M HClO4, 3rd Eox column
[20] = compound alone 0.5 mM in 0.1 M HClO4, 3rd Iox column
[21] = compound alone 0.5 mM in 0.1 M HClO4, 5th Eox
[22] = compound alone 0.5 mM in 0.1 M HClO4, 5th Iox column
[23] = compound + DPPH, 30 min, 3rd Eox column
[24] = compound + DPPH, 30 min, 3rd Iox column
[25] = compound + DPPH, after 30 min of reaction, 1st Eox column
[26] = compound + DPPH, after 30 min of reaction, 1st Iox column
[27] = compound alone, 2nd Ered column

## Cl.Oc1ccc(/C=N/Nc2nc(-c3ccc(O)c(O)c3)cs2)c(O)c1 [Compound 8b, (E)-2-(2,4-dihydroxybenzylidene)-1-(4-(3,4-dihydroxyphenyl)thiazol-2-yl)hydrazin-1-ium chloride]
[1]; 0.5 µg/mL
  % of ABTS˙^+ Scavenged: 40.09%
[1]; 0.75 µg/mL
  % of ABTS˙^+ Scavenged: 44.44%
[1]; 1 µg/mL
  % of ABTS˙^+ Scavenged: 50.79%
[1]; 1.5 µg/mL
  % of ABTS˙^+ Scavenged: 66.66%
[1]; 2.5 µg/mL
  % of ABTS˙^+ Scavenged: 96.82%
[1]; ABTS˙^+ scavenging
  IC50: 0.91 µg/mL
Fe^2+ chelation assay; 50 µg/mL
  Chelation Capacity (%), ferrous ions: 10.74%
Fe^2+ chelation assay; 100 µg/mL
  Chelation Capacity (%), ferrous ions: 18.15%
Fe^2+ chelation assay; 150 µg/mL
  Chelation Capacity (%), ferrous ions: 25.06%
Fe^2+ chelation assay; 200 µg/mL
  Chelation Capacity (%), ferrous ions: 33.38%
[2]; [5]
  Eox (V): 0.083 V
[2]; [6]
  Iox (μA): 0.34 μA
[2]; [7]
  Ered (V): 0.079 V
[2]; [8]
  Ired (μA): −8.01 μA
[2]; [9]
  Eox (V): 0.227 V
[2]; [10]
  Ered (V): 0.279 V
[2]; [11]
  Iox (μA): 28.09 μA
[2]; [12]
  Ired (μA): −2.81 μA
[2]; compound + Fe^3+/Fe^2+, 4th Eox column
  Eox (V): 0.449 V
[2]; compound + Fe^3+/Fe^2+, 4th Iox column
  Iox (μA): 28.48 μA
[2]; [13]
  Eox (V): 0.79 V
[2]; [14]
  Iox (μA): 15.19 μA
[2]; [15]
  Eox (V): 0.249 V
[2]; [16]
  Ered (V): 0.303 V
[2]; [17]
  Iox (μA): 1.02 μA
[2]; [18]
  Ired (μA): −1.97 μA
[2]; [19]
  Eox (V): 0.349 V
[2]; [20]
  Iox (μA): 1.76 μA
[2]; compound alone 0.5 mM in 0.1 M HClO4, 4th Eox column
  Eox (V): 0.450 V
[2]; compound alone 0.5 mM in 0.1 M HClO4, 4th Iox column
  Iox (μA): 2.29 μA
[2]; [21]
  Eox (V): 0.989 V
[2]; [22]
  Iox (μA): 1.17 μA
[3]; compound + DPPH, 30 min, 1st Ered
  Ered (V): 0.259 V
[3]; compound + DPPH, 30 min, 1st Ired
  Ired (μA): −14.96 μA
[3]; [23]
  Eox (V): 0.457 V
[3]; [24]
  Iox (μA): 18.63 μA
[3]; [25]
  Eox (V): 0.247 V
[3]; [26]
  Iox (μA): 17.56 μA
[3]; compound alone 0.5 mM in 0.1 M HClO4, 1st Eox column
  Eox (V): 0.259 V
[3]; compound alone 0.5 mM in 0.1 M HClO4, 1st Iox column
  Iox (μA): 10.92 μA
[3]; [27]
  Ered (V): 0.127 V
[3]; compound alone, 2nd Ired
  Ired (μA): −3.52 μA
[3]; compound alone, 3rd Eox column
  Eox (V): 0.47 V
[3]; compound alone, 3rd Iox column
  Iox (μA): 29.61 μA
[4]
  oxidation signal for TEMPO after incubation with the compound: both the signal shift to higher oxidation potentials and its decrease
E. coli ATCC 8739; E. coli ATCC 8739, read-out: MIC
  MIC: > 100 µg/mL

## C/C(=N\Nc1nc(C)cs1)c1ccc(O)cc1O [Compound 5a, Dihydroxy-Phenyl-Thiazol-Hydrazinium chloride]
Fe^2+ chelation assay; 150 µg/mL
  Chelation Capacity (%), ferrous ions: 11.17%
Fe^2+ chelation assay; 200 µg/mL
  Chelation Capacity (%), ferrous ions: 21.69%
[2]; [5]
  Eox (V): 0.152 V
[2]; [6]
  Iox (μA): 3.69 μA
[2]; [7]
  Ered (V): 0.091 V
[2]; [8]
  Ired (μA): −7.33 μA
[2]; [9]
  Eox (V): 0.308 V
[2]; [10]
  Ered (V): 0.323 V
[2]; [11]
  Iox (μA): 16.21 μA
[2]; [12]
  Ired (μA): −0.99 μA
[2]; compound + Fe^3+/Fe^2+, 3rd Iox column
  Iox (μA): 4.14 μA
[2]; [13]
  Eox (V): 0.903 V
[2]; [14]
  Iox (μA): 3.82 μA
[2]; [15]
  Eox (V): 0.308 V
[2]; [16]
  Ered (V): 0.318 V
[2]; [17]
  Iox (μA): 8.83 μA
[2]; [18]
  Ired (μA): −1.23 μA
[2]; [19]
  Eox (V): 0.573 V
[2]; [20]
  Iox (μA): 5.23 μA
[2]; [21]
  Eox (V): 0.997 V
[2]; [22]
  Iox (μA): 9.78 μA
[3]; compound + DPPH, 30 min
  Iox (μA): 13.23 μA
[3]; compound + DPPH, 30 min, 2nd Eox
  Eox (V): 0.362 V
[3]; compound + DPPH, 30 min, 2nd Ered column
  Ered (V): 0.188 V
[3]; compound + DPPH, 30 min, 2nd Ired
  Ired (μA): −5.46 μA
[3]; [23]
  Eox (V): 0.572 V
[3]; [24]
  Iox (μA): 11.81 μA
[3]; [25]
  Eox (V): 0.218 V
[3]; [26]
  Iox (μA): 8.68 μA
[3]; compound alone
  Iox (μA): 43.29 μA
[3]; compound alone, 2nd Eox
  Eox (V): 0.339 V
[3]; [27]
  Ered (V): 0.137 V
[3]; compound alone, 2nd Ired
  Ired (μA): −9.59 μA
[3]; compound alone, 3rd Eox column
  Eox (V): 0.598 V
[3]; compound alone, 3rd Iox column
  Iox (μA): 20.51 μA
[3]; compound alone, 4th Eox column
  Eox (V): 0.987 V
[3]; compound alone, 4th Iox column
  Iox (μA): 15.5 μA
[4]
  oxidation signal for TEMPO after incubation with the compound: both the signal shift to higher oxidation potentials and its decrease
E. coli ATCC 8739
  MIC: > 100 µg/mL
